Source: a compilation of properties of binary mixtures (doi:10.1021/acs.jced.3c00374)

Assay: xn = mol fraction of the nth substance listed
Details: 100 kPa

OCCNCCO + CCCC[n+]1ccn(C)c1.N#C[S-]
x2 = 0
Details	speed of sound [m/s]
288.15 K	1761.3
308.15 K	1700.6
318.15 K	1675.6

CCCC[n+]1ccn(C)c1.N#C[S-] + OCCNCCO
speed of sound [m/s]
Details	x1 = 0.1008	x1 = 0.2103	x1 = 0.2993	x1 = 0.4027	x1 = 0.5131	x1 = 0.6087	x1 = 0.7102	x1 = 0.8009	x1 = 0.9102	x1 = 1
288.15 K	1764.4	–	1770.6	1773.9	1777.3	–	1783.5	1786.3	1789.8	1792.6
298.15 K	1732.8	1737	–	1744.5	1748.7	1752.4	–	–	1764	1767.5
308.15 K	1704.9	1709.6	–	1717.8	1722.5	–	1731	–	1739.6	1743.4
318.15 K	1680.4	1685.6	1689.8	1694.8	1700	1704.6	1709.4	1713.7	–	–
